Experimental data published in patent US12378224B2 (Dong-A Socio Holdings Co., Ltd., priority 2016, dated 2025).

These compounds were tested against human MER (528-end) (Homo sapiens (Human), UniProt Q12866) (assay: HTRF Kinase Activity Biochemical Assay (KinEASE-TK)). Conditions: 10 uM ATP.
Outline: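 Recombinant human MER (528-end) phosphorylated biotin-TK peptide substrate, 1 h at room temperature. Reaction stopped with detection buffer containing 0.375 nM Eu3+-cryptate anti-TK antibody and 0.062 uM streptavidin-XL665, 1 h further. Activity taken as HTRF ratio 665/620 nm ×10,000, 340 nm excitation.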

human MER (528-end), sequence (Q12866 528-999 limits assumed): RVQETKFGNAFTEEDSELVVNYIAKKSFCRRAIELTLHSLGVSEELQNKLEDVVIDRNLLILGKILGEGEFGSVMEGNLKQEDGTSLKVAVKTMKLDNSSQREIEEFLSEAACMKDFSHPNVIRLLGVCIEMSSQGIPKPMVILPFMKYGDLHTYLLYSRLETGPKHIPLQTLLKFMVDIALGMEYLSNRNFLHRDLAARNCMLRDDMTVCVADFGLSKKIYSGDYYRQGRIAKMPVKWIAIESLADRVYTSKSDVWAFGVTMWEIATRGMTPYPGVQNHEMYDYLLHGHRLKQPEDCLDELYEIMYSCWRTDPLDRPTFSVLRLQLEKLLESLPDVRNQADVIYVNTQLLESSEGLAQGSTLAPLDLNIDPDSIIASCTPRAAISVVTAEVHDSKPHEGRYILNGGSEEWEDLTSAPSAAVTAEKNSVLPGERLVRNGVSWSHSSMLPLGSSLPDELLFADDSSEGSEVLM

Row | IC50 [nM] | SMILES
1 | > 1000 | Cn1cc(-c2cnc(N)c(C(=O)N[C@@H]3CCN(C(=O)/C=C/c4cccc(Br)c4)C3)c2)cn1 [Example 428, (R,E)-2-amino-N-(1-(3-(3-bromophenyl)acryloyl)pyrrolidin-3-yl)-5-(1-methyl-1H-pyrazol-4-yl)nicotinamide]
2 | 100 to 1000 | CN1CCN(Cc2ccc(/C=C/C(=O)N3CC[C@@H](NC(=O)c4cc(-c5cnn(C)c5)cnc4N)C3)cc2)CC1 [Example 429, (R,E)-2-amino-5-(1-methyl-1H-pyrazol-4-yl)-N-(1-(3-(4-((4-methylpiperazin-1-yl)methyl)phenyl)acryloyl)pyrrolidin-3-yl)nicotinamide]
3 | > 1000 | Cn1cc(-c2cnc(N)c(C(=O)N[C@@H]3CCN(C(=O)/C=C/c4ccc(CN5CCN(CCO)CC5)cc4)C3)c2)cn1 [Example 430, (R,E)-2-amino-N-(1-(3-(4-((4-(2-hydroxyethyl)piperazin-1-yl)methyl)phenyl)acryloyl)pyrrolidin-3-yl)-5-(1-methyl-1H-pyrazol-4-yl)nicotinamide]
4 | > 1000 | CN1CCN(Cc2ccc(-c3ccc(/C=C/C(=O)N4CC[C@@H](NC(=O)c5cc(-c6cnn(C)c6)cnc5N)C4)cc3)cc2)CC1 [Example 432, (R,E)-2-amino-5-(1-methyl-1H-pyrazol-4-yl)-N-(1-(3-(4′-((4-methylpiperazin-1-yl)methyl)-[1,1′-biphenyl]-4-yl)acryloyl)pyrrolidin-3-yl)nicotinamide]
5 | > 1000 | COc1ccccc1CC(=O)N1CC[C@@H](NC(=O)c2cc(-c3cnn(C)c3)cnc2N)C1 [Example 436, (R)-2-amino-N-(1-(2-(2-methoxyphenyl)acetyl)pyrrolidin-3-yl)-5-(1-methyl-1H-pyrazol-4-yl)nicotinamide]
6 | > 1000 | Cn1cc(-c2cnc(N)c(C(=O)N[C@@H]3CCN(C(=O)c4ccccc4)C3)c2)cn1 [Example 438, (R)-2-amino-N-(1-benzoylpyrrolidin-3-yl)-5-(1-methyl-1H-pyrazol-4-yl)nicotinamide]
7 | > 1000 | CN1CCN(Cc2ccc(-c3cccc4c(C(=O)N5CC[C@@H](NC(=O)c6cc(-c7cnn(C)c7)cnc6N)C5)cccc34)cc2)CC1 [Example 443, (R)-2-amino-5-(1-methyl-1H-pyrazol-4-yl)-N-(1-(5-(4-((4-methylpiperazin-1-yl)methyl)phenyl)-1-naphthoyl)pyrrolidin-3-yl)nicotinamide]
8 | > 1000 | Cn1cc(-c2cnc(N)c(C(=O)N[C@@H]3CCN(C(=O)c4cccc5c(-c6ccc(CN7CCC[C@@H]7CO)cc6)cccc45)C3)c2)cn1 [Example 444]
9 | > 1000 | CC(NCc1ccc(-c2cccc3c(C(=O)N4CC[C@@H](NC(=O)c5cc(-c6cnn(C)c6)cnc5N)C4)cccc23)cc1)C1CCN(C)CC1 (some centres unmarked) [Example 445]
10 | > 1000 | CN1CCN(Cc2ccc(Oc3cccc(C(=O)N4CC[C@@H](NC(=O)c5cc(-c6cnn(C)c6)cnc5N)C4)c3)cc2)CC1 [Example 446, (R)-2-amino-5-(1-methyl-1H-pyrazol-4-yl)-N-(1-(3-(4-((4-methylpiperazin-1-yl)methyl)phenoxy)benzoyl)pyrrolidin-3-yl)nicotinamide]
11 | > 1000 | Cn1cc(-c2cnc(N)c(C(=O)N[C@@H]3CCN(C(=O)c4cccc(Oc5ccc(CN6CCC[C@@H]6CO)cc5)c4)C3)c2)cn1 [Example 447, 2-amino-N—((R)-1-(3-(4-(((R)-2-(hydroxymethyl)pyrrolidin-1-yl)methyl)phenoxy)benzoyl)pyrrolidin-3-yl)-5-(1-methyl-1H-pyrazol-4-yl)nicotinamide]
12 | > 1000 | CN1CCN(Cc2ccc(Oc3ccc(C(=O)N4CC[C@@H](NC(=O)c5cc(-c6cnn(C)c6)cnc5N)C4)cc3)cc2)CC1 [Example 448, (R)-2-amino-5-(1-methyl-1H-pyrazol-4-yl)-N-(1-(4-(4-((4-methylpiperazin-1-yl)methyl)phenoxy)benzoyl)pyrrolidin-3-yl)nicotinamide]
13 | > 1000 | Cn1cc(-c2cnc(N)c(C(=O)N[C@@H]3CCN(C(=O)c4ccc(Oc5ccc(CN6CCC[C@@H]6CO)cc5)cc4)C3)c2)cn1 [Example 449]
14 | > 1000 | Cn1cc(-c2cnc(N)c(C(=O)N[C@@H]3CCN(C(=O)c4cccc(-c5ccccc5)c4)C3)c2)cn1 [Example 450, (R)—N-(1-([1,1′-biphenyl]-3-carbonyl)pyrrolidin-3-yl)-2-amino-5-(1-methyl-1H-pyrazol-4-yl)nicotinamide]
15 | > 1000 | Cn1cc(-c2cnc(N)c(C(=O)N[C@@H]3CCN(C(=O)c4cccc(-c5cnn(C6CCNCC6)c5)c4)C3)c2)cn1 [Example 451, (R)-2-amino-5-(1-methyl-1H-pyrazol-4-yl)-N-(1-(3-(1-(piperidin-4-yl)-1H-pyrazol-4-yl)benzoyl)pyrrolidin-3-yl)nicotinamide]
16 | > 1000 | CN1CCN(C(=O)Cc2cccc(-c3cccc(C(=O)N4CC[C@@H](NC(=O)c5cc(-c6cnn(C)c6)cnc5N)C4)c3)c2)CC1 [Example 452, (R)-2-amino-5-(1-methyl-1H-pyrazol-4-yl)-N-(1-(3′-(2-(4-methylpiperazin-1-yl)-2-oxoethyl)-[1,1′-biphenyl]-3-carbonyl)pyrrolidin-3-yl)nicotinamide]
17 | > 1000 | CN1CCN(C(=O)Cc2ccc(-c3cccc(C(=O)N4CC[C@@H](NC(=O)c5cc(-c6cnn(C)c6)cnc5N)C4)c3)cc2)CC1 [Example 454, (R)-2-amino-5-(1-methyl-1H-pyrazol-4-yl)-N-(1-(4′-(2-(4-methylpiperazin-1-yl)-2-oxoethyl)-[1,1′-biphenyl]-3-carbonyl)pyrrolidin-3-yl)nicotinamide]
18 | > 1000 | CN1CCN(CCc2ccc(-c3cccc(C(=O)N4CC[C@@H](NC(=O)c5cc(-c6cnn(C)c6)cnc5N)C4)c3)cc2)CC1 [Example 455, (R)-2-amino-5-(1-methyl-1H-pyrazol-4-yl)-N-(1-(4′-(2-(4-methylpiperazin-1-yl)ethyl)-[1,1′-biphenyl]-3-carbonyl)pyrrolidin-3-yl)nicotinamide]
19 | > 1000 | Cn1cc(-c2cnc(N)c(C(=O)N[C@@H]3CCN(C(=O)c4cccc(-c5cccc(C(=O)O)c5)c4)C3)c2)cn1 [Example 456, (R)-3′-(3-(2-amino-5-(1-methyl-1H-pyrazol-4-yl)nicotinamido)pyrrolidine-1-carbonyl)-[1,1′-biphenyl]-3-carboxylic acid]
20 | > 1000 | Cn1cc(-c2cnc(N)c(C(=O)N[C@@H]3CCN(C(=O)c4nc(-c5ccccc5)oc4C(F)(F)F)C3)c2)cn1 [Example 458, (R)-2-amino-5-(1-methyl-1H-pyrazol-4-yl)-N-(1-(2-phenyl-5-(trifluoromethyl)oxazole-4-carbonyl)pyrrolidin-3-yl)nicotinamide]
21 | > 1000 | Cn1cc(-c2cnc(N)c(C(=O)N[C@@H]3CCN(C(=O)c4cccc(-c5cccc(Cn6cccn6)c5)c4)C3)c2)cn1 [Example 459, (R)—N-(1-(3′-((1H-pyrazol-1-yl)methyl)-[1,1′-biphenyl]-3-carbonyl)pyrrolidin-3-yl)-2-amino-5-(1-methyl-1H-pyrazol-4-yl)nicotinamide]
22 | > 1000 | Cn1cc(-c2cnc(N)c(C(=O)N[C@@H]3CCN(C(=O)c4cccc(-c5cccc(Cn6ccnc6)c5)c4)C3)c2)cn1 [Example 460, (R)—N-(1-(3′-((1H-imidazol-1-yl)methyl)-[1,1′-biphenyl]-3-carbonyl)pyrrolidin-3-yl)-2-amino-5-(1-methyl-1H-pyrazol-4-yl)nicotinamide]
23 | > 1000 | Cn1cc(-c2cnc(N)c(C(=O)N[C@@H]3CCN(C(=O)c4cccc(-c5cccc(CN6CCOCC6)c5)c4)C3)c2)cn1 [Example 461, (R)-2-amino-5-(1-methyl-1H-pyrazol-4-yl)-N-(1-(3′-(morpholinomethyl)-[1,1′-biphenyl]-3-carbonyl)pyrrolidin-3-yl)nicotinamide]
24 | > 1000 | Cn1cc(-c2cnc(N)c(C(=O)N[C@@H]3CCN(C(=O)c4cccc(-c5cccc(C(=O)N6CCSCC6)c5)c4)C3)c2)cn1 [Example 463, (R)-2-amino-5-(1-methyl-1H-pyrazol-4-yl)-N-(1-(3′-(thiomorpholine-4-carbonyl)-[1,1′-biphenyl]-3-carbonyl)pyrrolidin-3-yl)nicotinamide]
25 | > 1000 | Cn1cc(-c2cnc(N)c(C(=O)N[C@@H]3CCN(C(=O)c4cccc(-c5cccc(C(=O)N6CCNCC6)c5)c4)C3)c2)cn1 [Example 464, (R)-2-amino-5-(1-methyl-1H-pyrazol-4-yl)-N-(1-(3′-(piperazine-1-carbonyl)-[1,1′-biphenyl]-3-carbonyl)pyrrolidin-3-yl)nicotinamide]
26 | > 1000 | Cn1cc(-c2cnc(N)c(C(=O)N[C@@H]3CCN(C(=O)c4cccc(-c5ccc(C(=O)N6CCNCC6)cc5)c4)C3)c2)cn1 [Example 465, (R)-2-amino-5-(1-methyl-1H-pyrazol-4-yl)-N-(1-(4′-(piperazine-1-carbonyl)-[1,1′-biphenyl]-3-carbonyl)pyrrolidin-3-yl)nicotinamide]
27 | 100 to 1000 | Cn1cc(-c2cnc(N)c(C(=O)N[C@@H]3CCN(C(=O)c4ccc(-c5cccc(C(=O)N6CCNCC6)c5)cc4)C3)c2)cn1 [Example 466, (R)-2-amino-5-(1-methyl-1H-pyrazol-4-yl)-N-(1-(3′-(piperazine-1-carbonyl)-[1,1′-biphenyl]-4-carbonyl)pyrrolidin-3-yl)nicotinamide]
28 | > 1000 | Cn1cc(-c2cnc(N)c(C(=O)N[C@@H]3CCN(C(=O)c4ccc(-c5ccc(C(=O)N6CCNCC6)cc5)cc4)C3)c2)cn1 [Example 467, (R)-2-amino-5-(1-methyl-1H-pyrazol-4-yl)-N-(1-(4′-(piperazine-1-carbonyl)-[1,1′-biphenyl]-4-carbonyl)pyrrolidin-3-yl)nicotinamide]
29 | > 1000 | Cc1nn(C)cc1-c1cccc(C(=O)N2CC[C@@H](NC(=O)c3cc(-c4cnn(C)c4)cnc3N)C2)c1 [Example 469, (R)-2-amino-N-(1-(3-(1,3-dimethyl-1H-pyrazol-4-yl)benzoyl)pyrrolidin-3-yl)-5-(1-methyl-1H-pyrazol-4-yl)nicotinamide]
